According to patent publication US8592421B2, “Cyclic bioisosters of purine system derivatives and a pharmaceutical composition based thereon” (priority 2003, dated 2013):

Columns and labels:
[1] = tested on: plasma hemostasis; assay: Partial activated thromboplastin time (PATT) after intravenous administration; format: in vivo, rabbit
Procedure: The static parameters of the blood and plasma coagulation (partial activated thromboplastin time, thrombin time, maximum coagulation activity (test for auto coagulation) were determined using the Behnk Electronic coagulometer (Germany). The operating principle of this instrument is based on the fact that the formed blood clot breaks the contacts of the pulse counter in the flask-pin circuit, said pin permanently oscillating in a vertical plane. The moment of formation of the clot is registered by stopping the stop watch hand.
The measurements were effected at a constant temperature of 37° C. maintained by a temperature control unit.

[2] = tested on: synthase of nitrogen oxide (NOC); assay: Morphine abstinence model: activity of synthase of nitrogen oxide (NOC), radiometric [3H]L-citrulline method; format: in vivo, rats Wistar; conditions: 20.0 mg/kg intramuscularly; for Activity of NOC: Mesencephalon: control 2.18 ± 0.09; for Activity of NOC: Hypothalamus: control 5.37 ± 0.20
[3] = tested on: adenosine-sensitive receptors of erythrocytes; assay: Interaction with adenosine-sensitive receptors of erythrocytes (chemiluminescence of bound compound, adenosine competition); format: binding, mice of line BALB/c; conditions: incubation at 37° C. vs 4° C., 10^−7 to 10^−5 M
Procedure: The interaction of compounds 2, 15, 21, 37 according to the invention with adenosine-sensitive receptors of erythrocytes of female mice of line BALB/c of an age of 8-12 months was investigated.
The dependence of the chemiluminescence intensity of the compounds according to the invention in an alkaline solution of 0.1N NaOH was determined in the presence of hydrogen peroxide being an initiator of chemiluminescence. The chemiluminescence was studied using the <<LKB>> chemiluminometer.
The erythrocytes of peripheral blood of the mice at first were washed three times by a normal physiological solution with centrifuging and then diluted in the Henks solution without glucose by 10 volumes of distilled water immediately used in the experiment.
At the first stage of the experiments the washed erythrocytes were incubated at a temperature of 37° C. or at 4° C. with solutions of the compounds according to the invention at a concentration of 10^−7 to 10^−5 M for 5-30 minutes, then washed by a normal physiological solution with repeated centrifuging in the cold. The obtained suspension of erythrocytes with the bound compounds according to the invention was placed in 0.1N solution of NaOH with addition of hydrogen peroxide at a final concentration of 10^−7 M. The chemiluminescence intensity was measured. A suspension of erythrocytes without compounds according to the invention was used as a control medium.
At the second stage of the experiments the washed erythrocytes were incubated at a temperature of 37° C. with solutions of the compounds according to the invention at a concentration of 10^−11 to 10^−8 M during 5-30 minutes, then washed twice with a normal physiological solution by centrifuging in the cold, the obtained suspension was mixed with an adenosine solution at a concentration of 10^−6 to 10^−4 and incubated for 15 minutes, then washed twice with a normal physiological solution with centrifuging in the cold. The obtained suspension of erythrocytes with the compounds according to the invention was placed in 0.1N solution of NaOH with addition of hydrogen peroxide in the final concentration of 10^−7 M. The chemiluminescence intensity was measured.

[4] = Chronic toxicity of suppositories: indexes of peripheral blood; format: in vivo, rats; conditions: male rats, suppositories rectally; for Basophiles / Juveniles: 1 month/2 months (one value given), control 0
Procedure: The experiments were conducted on inbred rats.
Two doses of preparations used in the experiments: 50 mg/kg and 500 mg/kg. Before the administration, the suppositories were softened by heating in a glass water bath at a temperature of 38-39° C., the soft mass was collected in tuberculin syringe in a volume of 1 ml, a needle with oliva was attached to the syringe, and the preparatory mass was introduced into the rectum of the animal for a depth of 1.5-2.0 cm. The animals of the control group were administered with sterile medical liquid paraffin in a volume corresponding to the volume of the investigated suppository. A complete course of administration of drugs to the animals was two months. A complex of laboratory diagnostic investigations was carried out one month after the beginning of the administration of the preparation to the animal—in a middle of the course (8 animals), two months after ending the course (8 animals) and three months after ending the recovery period of one month (8 animals). The mass of the body of the rats in the first month of administration of the preparation was determined weekly, and then once in two weeks. On the basis of the dynamics of an index of the mass of the animal body, the volume of preparation being administered was corrected taking into account the test dose.

[5] = Morphine abstinence model: indicator enzymes ALT, AST, γ-GTP in blood plasma; conditions: 20.0 mg/kg intramuscularly three times a day; for γ-GTP in blood plasma, Ci: control 6.261 ± 1.80; for ALT in blood plasma, Ci: control 106.76 ± 111.35; for AST in blood plasma, Ci: control 179.881 ± 11.94
Procedure: The experiments were carried out on rats in series of 7 animals on each compound according to the invention. Non-morphinized animal with not administered with compounds according to the invention were used as a control group. […] Then the rats were decapitated, the blood from somnolent arteries was collected in test tubes with solution EDTA as an anticoagulant, centrifuged at 1500 g for 15 minutes at 4° C.
To estimate possible hepatoprotective action of the compounds according to the invention under conditions of development of an oxidizing stress in the liver cells, effect of these compounds on the most important biochemical blood indexes, in particular, on the content in blood plasma of indicator enzyme of aspartateaminotransferase (AST), alanineaminotransferase (ALT), γ-glutamiletranspeptidase (γ-GTP) was investigated. The content of enzymes was estimated by their catalyzing activity in blood plasma.
The activity of AST, ALT and γ-GTP was determined by means of diagnostic sets DiaSys, Germany.

Nc1cccc2c(=O)[nH][nH]c(=O)c12.[Na] [Compound 15, sodium salt of 5-amino-benzo[d]-3H-pyridazine-1,4-dione]
PATT, T ([1]; 15.0 mg/kg intravenously, after 15 minutes, control 37.0 ± 0.2): 37.0 ± 0.1 s | PATT, T ([1]; 15.0 mg/kg intravenously, after 30 minutes, control 37.0 ± 0.2): 37.0 ± 0.2 s | PATT, T ([1]; 15.0 mg/kg intravenously, after 60 minutes, control 37.0 ± 0.2): 36.9 ± 0.1 s | PATT, T ([1]; 15.0 mg/kg intravenously, after 120 minutes, control 37.0 ± 0.2): 37.0 ± 0.3 s | PATT, T ([1]; 30.0 mg/kg intravenously, after 15 minutes, control 33.3 ± 0.8): 32.9 ± 0.8 s | PATT, T ([1]; 30.0 mg/kg intravenously, after 30 minutes, control 33.3 ± 0.8): 32.1 ± 0.1 s | PATT, T ([1]; 30.0 mg/kg intravenously, after 60 minutes, control 33.3 ± 0.8): 32.0 ± 0.2 s | PATT, T ([1]; 30.0 mg/kg intravenously, after 120 minutes, control 33.3 ± 0.8): 32.0 ± 0.1 s | PATT, T ([1]; 60.0 mg/kg intravenously, after 15 minutes, control 32.5 ± 0.3): 32.2 ± 0.1 s | PATT, T ([1]; 60.0 mg/kg intravenously, after 30 minutes, control 32.5 ± 0.3): 32.2 ± 0.1 s | PATT, T ([1]; 60.0 mg/kg intravenously, after 60 minutes, control 32.5 ± 0.3): 32.1 ± 0.2 s | PATT, T ([1]; 60.0 mg/kg intravenously, after 120 minutes, control 32.5 ± 0.3): 32.2 ± 0.1 s | effect on the PATT ([1]; doses 15.0, 30.0, 60.0 mg/kg): do not affect the PATT | Activity of NOC: Mesencephalon ([2]; Control + Compound): 2.60 ± 0.29 pmol/min/mg of protein | Activity of NOC: Hypothalamus ([2]; Control + Compound): 5.45 ± 0.24 pmol/min/mg of protein | Activity of NOC: Mesencephalon ([2]; Control + Morphine + compound): 1.83 ± 0.23 pmol/min/mg of protein | Activity of NOC: Hypothalamus ([2]; Control + Morphine + compound): 5.26 ± 0.28 pmol/min/mg of protein | dependence of the bond with erythrocytes on temperature [3]: does not depend on the temperature | Basophiles ([4]; 50 mg/kg): 0% | Juveniles ([4]; 50 mg/kg): 0% | Stab neutrophil ([4]; 50 mg/kg, 1 month, control 0.8 ± 0.4): 1.2 ± 0.5% | REE ([4]; 50 mg/kg, 1 month, control 2.2 ± 0.4): 1.8 ± 0.4 mm/h | Reticulocytes ([4]; 50 mg/kg, 1 month, control 2.8%0.3): 2.6 ± 0.2% | Eosinophiles ([4]; 50 mg/kg, 1 month, control 4.0 + 0.3): 3.2 ± 1.0% | Erythrocytes ([4]; 50 mg/kg, 1 month, control 5.6 ± 0.1): 5.7 ± 0.2 mln/mm^3 | Hemoglobin ([4]; 50 mg/kg, 1 month, control 10.5 ± 0.2): 10.6 ± 0.2 mmol/L | Leukocyte ([4]; 50 mg/kg, 1 month, control 17.4 ± 1.3): 14.8 ± 2.0 thousand/mm^3 | Haematocrite ([4]; 50 mg/kg, 1 month, control 45.9 ± 1.7): 47.9 ± 1.4% | Average volume of erythrocytes ([4]; 50 mg/kg, 1 month, control 81.4 ± 1.7): 84.4 ± 1.5 Mkm^3 | Coagulation, time ([4]; 50 mg/kg, 1 month, control 152 ± 10.2): 140 ± 12.2 s | REE ([4]; 50 mg/kg, 2 months, control 1.4 ± 0.2): 1.6 ± 0.2 mm/h | Stab neutrophil ([4]; 50 mg/kg, 2 months, control 2.4 ± 0.4): 0.8 ± 0.5% | Reticulocytes ([4]; 50 mg/kg, 2 months, control 2.9 ± 0.2): 3.0 ± 0.1% | Eosinophiles ([4]; 50 mg/kg, 2 months, control 4.4 + 1.2): 3.6 ± 1.2% | Erythrocytes ([4]; 50 mg/kg, 2 months, control 6.1 ± 0.1): 6.0 ± 0.1 mln/mm^3 | Hemoglobin ([4]; 50 mg/kg, 2 months, control 11.4 ± 0.2): 11.2 ± 0.1 mmol/L | Leukocyte ([4]; 50 mg/kg, 2 months, control 19.1 ± 1.9): 16.3 ± 1.0 thousand/mm^3 | Haematocrite ([4]; 50 mg/kg, 2 months, control 45.9 ± 1.8): 47.5 ± 1.2% | Average volume of erythrocytes ([4]; 50 mg/kg, 2 months, control 74.6 + 1.9): 78.6 ± 1.5 Mkm^3 | Coagulation, time ([4]; 50 mg/kg, 2 months, control 316 ± 8): 321 ± 12 s | Basophiles ([4]; 500 mg/kg): 0% | Juveniles ([4]; 500 mg/kg): 0% | Stab neutrophil ([4]; 500 mg/kg, 1 month, control 0.8 ± 0.4): 0.8 ± 0.5/0.8 ± 0.5% | REE ([4]; 500 mg/kg, 1 month, control 2.2 ± 0.4): 2.2 ± 0.4 mm/h | Reticulocytes ([4]; 500 mg/kg, 1 month, control 2.8%0.3): 3.1 ± 0.2% | Eosinophiles ([4]; 500 mg/kg, 1 month, control 4.0 + 0.3): 3.0 ± 1.0% | Erythrocytes ([4]; 500 mg/kg, 1 month, control 5.6 ± 0.1): 5.7 ± 0.1 mln/mm^3 | Hemoglobin ([4]; 500 mg/kg, 1 month, control 10.5 ± 0.2): 10.6 ± 0.2 mmol/L | Leukocyte ([4]; 500 mg/kg, 1 month, control 17.4 ± 1.3): 17.0 ± 1.4 thousand/mm^3 | Haematocrite ([4]; 500 mg/kg, 1 month, control 45.9 ± 1.7): 47.6 ± 1.3% | Average volume of erythrocytes ([4]; 500 mg/kg, 1 month, control 81.4 ± 1.7): 82.6 ± 1.1 Mkm^3 | Coagulation, time ([4]; 500 mg/kg, 1 month, control 152 ± 10.2): 151 ± 6.4 s | REE ([4]; 500 mg/kg, 2 months, control 1.4 ± 0.2): 1.8 ± 0.4 mm/h | Stab neutrophil ([4]; 500 mg/kg, 2 months, control 2.4 ± 0.4): 0.8 ± 0.5/0.8 ± 0.5% | Reticulocytes ([4]; 500 mg/kg, 2 months, control 2.9 ± 0.2): 3.3 ± 0.3% | Eosinophiles ([4]; 500 mg/kg, 2 months, control 4.4 + 1.2): 3.2 ± 1.4% | Erythrocytes ([4]; 500 mg/kg, 2 months, control 6.1 ± 0.1): 6.7 ± 0.2 mln/mm^3 | Hemoglobin ([4]; 500 mg/kg, 2 months, control 11.4 ± 0.2): 12.5 ± 0.4 mmol/L | Leukocyte ([4]; 500 mg/kg, 2 months, control 19.1 ± 1.9): 21.1 ± 2.4 thousand/mm^3 | Haematocrite ([4]; 500 mg/kg, 2 months, control 45.9 ± 1.8): 53.9 ± 2.1% | Average volume of erythrocytes ([4]; 500 mg/kg, 2 months, control 74.6 + 1.9): 80.21 ± 1.2 Mkm^3 | Coagulation, time ([4]; 500 mg/kg, 2 months, control 316 ± 8): 308 ± 16 s | γ-GTP in blood plasma, Ci ([5]; Control + compound): 7.03 ± 2.82 mE/l | ALT in blood plasma, Ci ([5]; Control + compound): 113.48 ± 2.39 mE/l | AST in blood plasma, Ci ([5]; Control + compound): 173.46 ± 5.63 mE/l | γ-GTP in blood plasma, Ci ([5]; control + Morphine + Compound): 10.69 ± 1.84 mE/l | ALT in blood plasma, Ci ([5]; control + Morphine + Compound): 121.08 ± 5.04 mE/l | AST in blood plasma, Ci ([5]; control + Morphine + Compound): 195.57 ± 18.68 mE/l
